# Measured values reported in US7968526B2, “Antisense oligonucleotides directed to ribonucleotide reductase R2 and uses thereof in the treatment of cancer” (Lorus Therapeutics Inc., priority 2003, dated 2011).
# Entries after “also recorded” stand apart in the source; their conditions may differ.
# How the values were obtained:
# [1] = system: Hela S3 human cervix epitheloid carcinoma cells; experiment: Hela S3 hydroxyurea resistant cervix carcinoma xenograft in SCID mice; format: in vivo, human cells in mice
# Protocol: BxPC-3 is a gemcitabine resistant call line. […] Gemcitabine was administered intravenously every three days at a dose of 100 mg/kg. Antitumour activities were estimated by the inhibition of tumour volume, which was measured with caliper. Each point represents mean tumour volume calculated from 10 animals per experimental group. […] Hela S3 is a hydroxyurea resistant cell line. […] Hydroxyurea was administered intraperitoneally every day at a dose of 250 mg/kg for 10 days. Cisplatin was administered intravenously once a week for three weeks at a dose of 4 mg/kg. Antitumour activities were estimated by the inhibition of tumour volume, which was measured with caliper. Each point represents mean tumour volume calculated from 10 animals per experimental group. […] Cisplatin was administered intravenously once a week for three weeks at a dose of 4 mg/kg. Taxol was administered intravenously once a week for three weeks at a dose of 10 mg/kg. Antitumour activities were estimated by the inhibition of tumour volume, which was measured with caliper. Each point represents mean tumour volume calculated from 10 animals per experimental group. […] Taxol was administered i.p. once a week at a dose of 10 mg/kg. Antitumour activities were estimated by the inhibition of tumour volume (FIG. 12A), which was measured with calipers. Each point represents mean tumour volume calculated from 10 animals per experimental group. Animals were sacrificed and tumour weights taken at the end of the study (FIG. 12C). […] The effects of combined treatment were greater than either treatment alone. […] Cisplatin was administered intravenously once a week for four weeks at a dose of 4 mg/kg. Taxol was administered intravenously once a week for four weeks at a dose of 20 mg/kg. Antitumour activities were estimated by the inhibition of tumour volume, which was measured with caliper. Each point represents mean tumour volume calculated from 9-10 animals per experimental group. […] Cisplatin was administered intravenously once a week for four weeks at a dose of 4 mg/kg. Antitumour activities were estimated by the inhibition of tumour volume, which was measured with caliper. Each point represents mean tumour volume calculated from 10 animals per experimental group. At the end of the study the animals were sacrificed and tumours weighed. […] Taxol was administered i.p. once a week at a dose of 10 mg/kg. Anti-tumour activity was estimated by the inhibition of tumour volume, which was measured with caliper. Each point represents mean tumour volume calculated from 10 animals per experimental group. In addition animals were sacrificed and tumour weights taken at the end of the study. […] CPT-11 was administered i.p. for 5 days at a dose of 20 mg/kg/day. Antitumour activities were estimated by the inhibition of tumour volume, which was measured with caliper. Each point represents mean tumour volume calculated from 10 animals per experimental group. Tumour weights were measured after animals were sacrificed at the end of the treatment. These cells are not resistant to CPT-11 which was used as a positive control.
# [2] = Pharmacokinetics in the monkey, 21 day continuous intravenous infusion; format: in vivo
# Protocol: The toxicokinetics and tissue distribution of SEQ ID NO:1 (and related oligonucleotide metabolites obtained from exonuclease-mediated chain shortening) were determined in rats and monkeys. In addition to investigating the pharmacokinetics and tissue distribution of SEQ ID NO:1, the purpose of the studies was to correlate adverse effects in the animal studies to the concentrations of SEQ ID NO:1 (and metabolites) in tissue and blood. A capillary electrophoresis (CE) method was used to measure the concentrations of SEQ ID NO:1 (and metabolites) in plasma and tissues.
# SEQ ID NO:1 was administered to monkeys by continuous intravenous infusion for 21 days followed by a 21-day recovery period. Twenty-eight monkeys were administered one of the following dose levels; vehicle control, 2, 10, or 50 mg/kg/day (24.6, 123, and 615 mg/m^2/day). Toxicokinetic samples were collected prior to the initiation of infusion, approximately 8, 24, 48, and 96 hours following the start of infusion, and on Day 20 prior to the change in dose-syringes.
# [3] = system: MDA-CDDP-S4 human in vivo-selected Cisplatin-resistant breast adenocarcinoma cells; experiment: MDA-CDDP-S4 Cisplatin-resistant breast adenocarcinoma, fat pad, SCID mice (2.3); design: species or system human cells in mice
# Protocol: BxPC-3 is a gemcitabine resistant call line. […] Gemcitabine was administered intravenously every three days at a dose of 100 mg/kg. Antitumour activities were estimated by the inhibition of tumour volume, which was measured with caliper. Each point represents mean tumour volume calculated from 10 animals per experimental group. […] Hela S3 is a hydroxyurea resistant cell line. […] Hydroxyurea was administered intraperitoneally every day at a dose of 250 mg/kg for 10 days. Cisplatin was administered intravenously once a week for three weeks at a dose of 4 mg/kg. Antitumour activities were estimated by the inhibition of tumour volume, which was measured with caliper. Each point represents mean tumour volume calculated from 10 animals per experimental group. […] Cisplatin was administered intravenously once a week for three weeks at a dose of 4 mg/kg. Taxol was administered intravenously once a week for three weeks at a dose of 10 mg/kg. Antitumour activities were estimated by the inhibition of tumour volume, which was measured with caliper. Each point represents mean tumour volume calculated from 10 animals per experimental group. […] Taxol was administered i.p. once a week at a dose of 10 mg/kg. Antitumour activities were estimated by the inhibition of tumour volume (FIG. 12A), which was measured with calipers. Each point represents mean tumour volume calculated from 10 animals per experimental group. Animals were sacrificed and tumour weights taken at the end of the study (FIG. 12C). […] Cisplatin was administered intravenously once a week for four weeks at a dose of 4 mg/kg. Taxol was administered intravenously once a week for four weeks at a dose of 20 mg/kg. Antitumour activities were estimated by the inhibition of tumour volume, which was measured with caliper. Each point represents mean tumour volume calculated from 9-10 animals per experimental group. […] Cisplatin was administered intravenously once a week for four weeks at a dose of 4 mg/kg. Antitumour activities were estimated by the inhibition of tumour volume, which was measured with caliper. Each point represents mean tumour volume calculated from 10 animals per experimental group. At the end of the study the animals were sacrificed and tumours weighed. […] Taxol was administered i.p. once a week at a dose of 10 mg/kg. Anti-tumour activity was estimated by the inhibition of tumour volume, which was measured with caliper. Each point represents mean tumour volume calculated from 10 animals per experimental group. In addition animals were sacrificed and tumour weights taken at the end of the study. […] CPT-11 was administered i.p. for 5 days at a dose of 20 mg/kg/day. Antitumour activities were estimated by the inhibition of tumour volume, which was measured with caliper. Each point represents mean tumour volume calculated from 10 animals per experimental group. Tumour weights were measured after animals were sacrificed at the end of the treatment. These cells are not resistant to CPT-11 which was used as a positive control.
# [4] = 10 mg/kg/day continuous i.v. infusion 21 days
# [5] = 50 mg/kg/day continuous i.v. infusion 21 days
substance,measurement,setting,value
"5′-GGCTAAATCGCTCCACCAAG-3′ (all phosphorothioate, sugars by position and methylation of C not given here) [SEQ ID NO: 1, fully phosphorothioated antisense oligonucleotide that hybridizes to the coding region of R2 mRNA]",Tumour weight as % of saline control,"[1]; Hela S3 (cervix), hydroxyurea resistant, SCID, SEQ ID NO:1 10 mg/kg i.v. every other day 6 times, Hydroxyurea 250 mg/kg i.p. daily 10 days, Cisplatin 4 mg/kg i.v. weekly x3",24%
same,"Antitumour effect (tumour volume, FIG. 10)","[1]; Hela S3 hydroxyurea resistant, SCID mice, SEQ ID NO:1 10 mg/kg i.v. every other day, Hydroxyurea 250 mg/kg i.p. daily, Cisplatin 4 mg/kg i.v. weekly",significant delay of tumour growth compared to saline control; also recorded: superior to the inhibitory effects observed with Cisplatin alone
same,Plasma concentrations,[2]; 2 mg/kg dose group,could not be detected
same,median Tmax,[2]; 10 mg/kg dose group,20 days
same,Cl,[2]; [4],3.47 ± 0.867 mL/min/kg
same,Cmax,[2]; [4],2.94 µg/mL
same,Css,[2]; [4],2.10 ± 0.48 µg/mL
same,Tmax (mean),[2]; [4],13.5 days
same,median Tmax,[2]; 50 mg/kg dose group,1 days
same,Cl,[2]; [5],2.17 ± 0.267 mL/min/kg
same,Cmax,[2]; [5],20.3 µg/mL
same,Css,[2]; [5],16.2 ± 2.2 µg/mL
same,Tmax (mean),[2]; [5],7.12 days
same,Time to steady state plasma concentration,[2]; continuous i.v. infusion,steady state by eight hours after dosing
same,Tumour weight as % of saline control,"[3]; MDA-CDDP-S4 (breast), Cisplatin resistant, SCID, SEQ ID NO:1 10 mg/kg i.v. every other day 9 times, Taxol 10 mg/kg, Cisplatin 4 mg/kg i.v. weekly x3",32%
same,Antitumour effect (FIG. 11),"[3]; MDA-CDDP-S4 Cisplatin-resistant, SCID mice, SEQ ID NO:1 10 mg/kg i.v. every other day, Cisplatin 4 mg/kg, Taxol 10 mg/kg i.v. weekly",significant reduction of tumour weight compared to saline control
